From patent publication US20250171776A1, “NON-CANONICAL CELL-PENETRATING PEPTIDES FOR ANTISENSE OLIGOMER DELIVERY” (priority 2023, published 2025)
Where no end group is shown, it is not given here. [ ]: non-standard residue; d: D form. Iph = iodophenylalanine

Key:
Type in all cases: cell-based
[1] = test system: HeLa 654 cells; assay: HeLa 654 eGFP assay (flow cytometry, mean eGFP fluorescence, 22 h); settings: 1 μM, 22 h
Method: Purified constructs were then tested using an activity-based readout in which nuclear delivery results in fluorescence. Briefly, HeLa cells stably transfected with an Enhanced Green Fluorescent Protein (eGFP) gene interrupted by a mutated intron of β-globin (IVS2-654) produce a non-fluorescent eGFP protein. As used herein, Hela-654 cells refers to the Hela cells transfected with an Enhanced Green Fluorescent Protein (eGFP) gene interrupted by a mutated intron of β-globin (IVS2-654) and Hela-654 eGFP Assay is used to refer to an Assay that uses the Hela-654 cells. Successful delivery of PMO IVS2-654 to the nucleus results in corrective splicing and eGFP synthesis.
The amount of PMO delivered to the nucleus is therefore correlated with eGFP fluorescence, quantified by flow cytometry. Activity was reported as mean fluorescence intensity (MFI) relative to PMO alone. This activity assay provides indirect information on how much active PMO is delivered to the nucleus. Relative efficiency of a PMO-CPP conjugate was characterized by comparing activity to internal concentration.
[…] 18 h prior to treatment, the cells were plated at a density of 5,000 cells per well in a 96-well plate in DMEM supplemented with 10% FBS and 1% penicillin-streptomycin.
For individual peptide testing, PPMOs were dissolved in phosphate buffered saline (PBS) without Ca^2+ or Mg^2+ at a concentration of 1 mM (determined by UV absorbance of the PMO) before being diluted in Dulbecco's modified eagle medium (DMEM). Cells were incubated at the designated concentrations in triplicate for 22 h at 37° C. and 5% CO2. Next, the treatment media was removed, and the cells were washed once before being incubated with 0.25% Trypsin-EDTA for 15 min at 37° C. and 5% CO2. Lifted cells were transferred to a V-bottom 96-well plate and washed once with PBS, before being resuspended in PBS containing 2% FBS and 2 μg/mL propidium iodide (PI). Flow cytometry analysis was carried out on a BD LSRII flow cytometer. Gates were applied to the data to ensure that cells that were positive for propidium iodide or had forward/side scatter readings that were sufficiently different from the main cell population were excluded. Each sample was capped at 5,000 gated events.
Analysis was conducted using Graphpad Prism 7 and FlowJo. For each sample, the mean fluorescence intensity (MFI) and the number of gated cells were measured. To report activity, triplicate MFI values were averaged and normalized to the PMO alone condition.

[2] = test system: TH-1 renal cells; assay: Lactate dehydrogenase (LDH) release assay in TH-1 renal cells; settings: LDH release at 18 hours
Method: (§1) The media from the cells was analyzed for LDH release with an LDH assay and the percentage of LDH release was calculated relative to fully lysed cells.
(§2) Cytotoxicity assays were performed in HeLa 654 cells or TH-1 renal cells. TH-1 cells were maintained in DMEM supplemented with 10% (v/v) fetal bovine serum (FBS) and 1% (v/v) penicillin-streptomycin at 37° C. and 5% CO2H-1. Cells were plated at 5,000 cells/well in a 96-well plate 18-hours prior to treatment and treated with PMO-peptide compounds as described above. HeLa cell LDH assays were performed concurrently on the cells treated for Flow cytometry, so all plating and treatment protocols match those described above.
(§3) 17 hours after cell treatment, the Promega CytoTox lysis solution was added to 3 wells of each plate as a fully lysed control (100% LDH-release). 18 hours after treatment, cell supernatant was transferred to a new 96-well plate for analysis of LDH release. To each well of the 96-well plate containing supernatant was added CytoTox 96 Reagent (Promega). […] Equal volume of Stop Solution was added to each well, mixed, and the absorbance of each well was measured at 490 nm. The measurement of vehicle-treated cells was subtracted from each measurement, and % LDH release was calculated as % cytotoxicity=100×Experimental LDH Release (OD490)/Maximum LDH Release (OD490).

[3] = test system: HELA-654 cells; assay: Hela-654 eGFP assay (incucyte imaging, GFP positive cells, 72 h); settings: chimeric peptide PMO conjugates, 72 h, read-out: EC50 (at 72 h)
Method: HELA-654 cells were imaged at 72 hours with an incucyte and the number of GFP positive cells versus total cell counts were calculated with the incucyte image analysis software. Statistical analysis was conducted using a one-way analysis of variance (ANOVA) test with Dunnett's multiple comparison test. Bars represent mean±standard deviation (SD), with P<0.05 was considered to indicate statistical significance, (**** p<0.0001, *** […], ** p<0.01, * p<0.05).
HELA-654 cells were imaged at 72 hours with an incucyte and the number of GFP positive cells versus total cell counts were calculated with the incucyte image analysis software.

[4] = test system: HeLa 654 cells; assay: Lactate dehydrogenase (LDH) release assay in HeLa 654 cells; settings: 50 μM
Method: as §1, §2, §3

Substance: Lys-Gln-Lys-Thr-Ser-Iph-Gly-Arg-Lys-Trp-Lys-Gln-Lys-Thr-Ser-Iph-Gly-Arg-Lys-Trp-Lys-Lys (KQKTS[Iph]GRKWKQKTS[Iph]GRKWKK; not fully specified (N-terminus, C-terminus); printed as Lys-Gln-Lys-Thr-Ser-Iph-Gly-Arg-Lys-Trp-Lys-Gln-Lys-Thr-Ser-Iph-Gly-Arg-Lys-Trp-Lys-Lys; also: PMO IVS2-654 conjugate) [CXD1B]
- PMO delivery (mean eGFP fluorescence relative to vehicle) [1]: high PMO delivery
- Therapeutic window (HeLa-654 eGFP efficacy versus LDH release in TH-1 renal cells) [2]: wider therapeutic window in comparison to other PMO-peptide conjugates
- EC50 [3]: 3.54 µM
- Toxicity: LDH release [4]: lower toxicity than the CXP1-CXP1 sequence
